Patent US10370381B2, “Inhibitors of bruton'S tyrosine kinase” (GILEAD SCIENCES, INC., priority 2017, dated 2019)
Counter-ions that a name gives are not always drawn.

assay: Dynamic Vapor Sorption (DVS), hygroscopicity of solids; format: physicochemical; settings: from about 10% to about 90% RH at about 25° C.
Method: Dynamic Vapor Sorption (DVS):
DVS data, which was used to determine the hygroscopicity of solids, were collected on a TA Instruments Q5000SA system. The temperature-controlled chamber was set at 25° C. and dry nitrogen was introduced at a flow rate of 10 mL/min. Approximately 1 to 5 mg sample was placed in a semispherical metal-coated quartz crucible or a disposable aluminum pan. A stepwise isotherm experiment at 25° C. was conducted by controlling the relative humidity (RH) in the chamber from 10% to 90%, then down to 10%, at 10% increments to accomplish a full sorption/desorption cycle.

Q: Which “dynamic vapor sorption isotherm water uptake” value does the source give for `CC#CC(=O)N1CC[C@@H](n2c(=O)n(-c3ccc(Oc4ccccc4)cc3)c3c(N)ncnc32)C1` [Compound (I) edisylate, 6-amino-9-[(3R)-1-(2-butynoyl)-3-pyrrolidinyl]-7-(4-phenoxyphenyl)-7,9-dihydro-8H-purin-8-one] here?
A: about 22%

Q: With `CC#CC(=O)N1CC[C@@H](n2c(=O)n(-c3ccc(Oc4ccccc4)cc3)c3c(N)ncnc32)C1` [Compound (I) fumarate, 6-amino-9-[(3R)-1-(2-butynoyl)-3-pyrrolidinyl]-7-(4-phenoxyphenyl)-7,9-dihydro-8H-purin-8-one] as the molecule, how does the “dynamic vapor sorption isotherm water uptake” value read?
A: about 0.1%

Q: With `CC#CC(=O)N1CC[C@@H](n2c(=O)n(-c3ccc(Oc4ccccc4)cc3)c3c(N)ncnc32)C1` [Compound (I) hemiedisylate, 6-amino-9-[(3R)-1-(2-butynoyl)-3-pyrrolidinyl]-7-(4-phenoxyphenyl)-7,9-dihydro-8H-purin-8-one] as the molecule, how does the “dynamic vapor sorption isotherm water uptake” value read?
A: about 3%

Q: Which “dynamic vapor sorption isotherm water uptake” value does the source give for `CC#CC(=O)N1CC[C@@H](n2c(=O)n(-c3ccc(Oc4ccccc4)cc3)c3c(N)ncnc32)C1` [Compound (I) heminapadisylate, 6-amino-9-[(3R)-1-(2-butynoyl)-3-pyrrolidinyl]-7-(4-phenoxyphenyl)-7,9-dihydro-8H-purin-8-one] here?
A: about 6.5%

Q: With `CC#CC(=O)N1CC[C@@H](n2c(=O)n(-c3ccc(Oc4ccccc4)cc3)c3c(N)ncnc32)C1` [Compound (I) hemisulfate, 6-amino-9-[(3R)-1-(2-butynoyl)-3-pyrrolidinyl]-7-(4-phenoxyphenyl)-7,9-dihydro-8H-purin-8-one] as the molecule, how does the “dynamic vapor sorption isotherm water uptake” value read?
A: about 1.2%

Q: With `CC#CC(=O)N1CC[C@@H](n2c(=O)n(-c3ccc(Oc4ccccc4)cc3)c3c(N)ncnc32)C1` [Compound (I) oxalate, 6-amino-9-[(3R)-1-(2-butynoyl)-3-pyrrolidinyl]-7-(4-phenoxyphenyl)-7,9-dihydro-8H-purin-8-one] as the molecule, how does the “dynamic vapor sorption isotherm water uptake” value read?
A: about 0.5%

Q: For `CC#CC(=O)N1CC[C@@H](n2c(=O)n(-c3ccc(Oc4ccccc4)cc3)c3c(N)ncnc32)C1` [Compound (I) succinate, 6-amino-9-[(3R)-1-(2-butynoyl)-3-pyrrolidinyl]-7-(4-phenoxyphenyl)-7,9-dihydro-8H-purin-8-one], which “dynamic vapor sorption isotherm water uptake” value is on record?
A: about 0.2%
